15 compounds from US12600717B2, “Tricyclic compounds as inhibitors of KRAS” (Incyte Corporation, priority 2021, dated 2026) can be followed below.

One may read the IC50 as the concentration that inhibits the measured activity by half.

In one test the test system is KRAS. Nature of the test: Inhibition of KRAS activity, assay not specified (at least one assay described herein). As to conditions: remark in the synthesis example, assay not named. The text has this:
The invention will be described in greater detail by way of specific examples. The following examples are offered for illustrative purposes, and are not intended to limit the invention in any manner. Those of skill in the art will readily recognize a variety of non-critical parameters which can be changed or modified to yield essentially the same results.

The next test concerns the target KRAS G12V (Homo sapiens, UniProt P01116, G12V). Nature of the test: GDP-GTP exchange assay (bodipy-GDP/GppNHp, SOS1), KRAS G12V. The conditions noted are these: bodipy-loaded KRAS G12V 2.5 nM, 3 hours incubation after adding GppNHp-SOS1; read-out: G12V_exchange IC50. Format: biochemical. The protocol: (§1) The inhibitor potency of the exemplified compounds was determined in a fluorescence based guanine nucleotide exchange assay, which measures the exchange of bodipy-GDP (fluorescently labeled GDP) for GppNHp (Non-hydrolyzable GTP analog) to generate the active state of KRAS in the presence of SOS1 (guanine nucleotide exchange factor). Inhibitors were serially diluted in DMSO and a volume of 0.1 μL was transferred to the wells of a black low volume 384-well plate. 5 μL/well volume of bodipy-loaded KRAS G12D diluted to 2.5 nM in assay buffer (25 mM Hepes pH 7.5, 50 mM NaCl, 10 mM MgCl2 and 0.01% Brij-35) was added to the plate and pre-incubated with inhibitor for 4 hours at ambient temperature. Appropriate controls (enzyme with no inhibitor or with a G12D inhibitor) were included on the plate. The exchange was initiated by the addition of a 5 μL/well volume containing 1 mM GppNHp and 300 nM SOS1 in assay buffer. The 10 μL/well reaction concentration of the bodipy-loaded KRAS G12D, GppNHp, and SOS1 were 2.5 nM, 500 uM, and 150 nM, respectively. The reaction plates were incubated at ambient temperature for 2 hours, a time estimated for complete GDP-GTP exchange in the absence of inhibitor. For the KRAS G12V mutant, similar guanine nucleotide exchange assays were used with 2.5 nM as final concentration for the bodipy loaded KRAS proteins and 3 hours incubation after adding GppNHp-SOS1 mixture. A cyclic peptide described to selectively bind G12D mutant (Sakamoto et al., BBRC 484.3 (2017), 605-611) or internal compounds with confirmed binding were used as positive controls in the assay plates. Fluorescence intensities were measured on a PheraStar plate reader instrument (BMG Labtech) with excitation at 485 nm and emission at 520 nm.
(§2) Either GraphPad prism or Genedata Screener SmartFit was used to analyze the data. The IC50 values were derived by fitting the data to a four parameter logistic equation producing a sigmoidal dose-response curve with a variable Hill coefficient.
(§3) The symbol “†” indicates IC50≤100 nM, “††” indicates IC50>100 nM but ≤1 μM; and “†††” indicates IC50 is >1 μM but ≤5 μM, “††††” indicates IC50 is >5 μM but ≤10 μM. “NA” indicates IC50 not available.

The target in the next test is KRAS G12D (Homo sapiens, UniProt P01116, G12D). Nature of the test: GDP-GTP exchange assay (bodipy-GDP/GppNHp, SOS1), KRAS G12D. The test is classed as biochemical. As to conditions: bodipy-loaded KRAS G12D 2.5 nM, 4 hours pre-incubation with inhibitor, 2 hours after GppNHp/SOS1; read-out: G12D_exchange IC50. The protocol:
as §1, §2, §3

Sequence of KRAS G12D (P01116 1-188 isoform P01116-2 G12D): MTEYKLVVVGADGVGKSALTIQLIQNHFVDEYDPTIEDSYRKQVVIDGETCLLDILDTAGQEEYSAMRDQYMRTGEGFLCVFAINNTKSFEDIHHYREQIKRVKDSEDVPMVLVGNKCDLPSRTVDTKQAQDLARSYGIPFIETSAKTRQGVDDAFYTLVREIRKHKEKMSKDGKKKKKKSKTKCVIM
Sequence of KRAS G12V (P01116 1-188 isoform P01116-2 G12V): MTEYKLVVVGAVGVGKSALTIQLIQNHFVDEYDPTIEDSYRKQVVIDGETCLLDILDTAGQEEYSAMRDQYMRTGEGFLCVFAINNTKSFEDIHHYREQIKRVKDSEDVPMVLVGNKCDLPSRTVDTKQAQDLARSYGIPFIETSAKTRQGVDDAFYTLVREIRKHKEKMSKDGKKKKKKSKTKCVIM

Regarding `CC(=O)N1CC[C@H](n2cnc3c(O[C@@H](C)[C@@H]4CCCN4C)nc4c(F)c(-c5cccc6cccc(C#N)c56)c(Cl)cc4c32)C[C@H]1CC#N` (single isomer, unassigned) [Example 39b], in the test with KRAS, the “potency of isolated peak relative to the other diastereomer” value is listed as “potent peak”. In addition, the IC50 on KRAS G12V and at KRAS G12D was not above 100 nM throughout.

For `C[C@H](Oc1nc2c(F)c(-c3cccc4cccc(C#N)c34)c(Cl)cc2c2c1ncn2[C@H]1CCN(C(N)=O)[C@H](CC#N)C1)[C@@H]1CCCN1C` [Example 42, (2S,4S)-4-(8-chloro-7-(8-cyanonaphthalen-1-yl)-6-fluoro-4-((S)-1-((S)-1-methylpyrrolidin-2-yl)ethoxy)-1H-imidazo[4,5-c]quinolin-1-yl)-2-(cyanomethyl)piperidine-1-carboxamide], the IC50 at KRAS G12V and on KRAS G12D was not above 100 nM in each case.

On to `CCc1nc2c(-c3cc(C(=O)NC)ccc3F)nc3c(F)c(-c4cc(O)cc5ccccc45)c(CCC#N)cc3c2n1C1C2CNC1C2` (single isomer, unassigned) [Example 17a, 3-(1-((endo)-2-Azabicyclo[2.1.1]hexan-5-yl)-8-(2-cyanoethyl)-2-ethyl-6-fluoro-7-(3-hydroxynaphthalen-1-yl)-1H-imidazo[4,5-c]quinolin-4-yl)-4-fluoro-N-methylbenzamide], for which the “potency of isolated peak relative to the other diastereomer” value with KRAS was “More potent peak”. Besides, the IC50 on KRAS G12V and at KRAS G12D was not above 100 nM throughout.

Take `CN(C)C(=O)CCc1nc2c(N3CC(N(C)C)C3)nc3c(F)c(-c4cc(O)cc(Cl)c4C4CC4)ccc3c2n1C1C2CNC1C2` (centres unmarked) [Example 11, 3-(1-(2-azabicyclo[2.1.1]hexan-5-yl)-7-(3-chloro-2-cyclopropyl-5-hydroxyphenyl)-4-(3-(dimethylamino)azetidin-1-yl)-6-fluoro-1H-imidazo[4,5-c]quinolin-2-yl)-N,N-dimethylpropanamide]: the figures for the IC50 at KRAS G12V and at KRAS G12D were 1000 to 5000 nM and not above 100 nM, respectively.

As to `CCc1nc2c(C)nc3c(F)c(-c4cc(O)cc5ccccc45)c(CCC#N)cc3c2n1C1C2CNC1C2` (single isomer, unassigned) [Example 23a, 3-(1-((endo)-2-Azabicyclo[2.1.1]hexan-5-yl)-2-ethyl-6-fluoro-7-(3-hydroxynaphthalen-1-yl)-4-methyl-1H-imidazo[4,5-c]quinolin-8-yl)propanenitrile], the IC50 at KRAS G12V and on KRAS G12D was not above 100 nM throughout.

On to `CN(C)C1CN(c2nc3c(F)c(-c4cc(O)cc5ccccc45)c(CCC#N)cc3c3c2nc(-c2ccc4[nH]ncc4c2)n3C2C3CNC2C3)C1` (single isomer, unassigned) [Example 38a], for which the IC50 at KRAS G12V is not above 100 nM; at KRAS G12D it was 100 to 1000 nM.

On to `CCc1nc2c(OC[C@@]34CCCN3C[C@H](F)C4)nc3c(F)c(-c4c[nH]c5ccc(C)cc45)c(CCC#N)cc3c2n1C1C2CNC1C2` (stereo partly drawn) [Example 28, 3-(1-(2-azabicyclo[2.1.1]hexan-5-yl)-2-ethyl-6-fluoro-4-(((2R,7aS)-2-fluorotetrahydro-1H-pyrrolizin-7a(5H)-yl)methoxy)-7-(5-methyl-1H-indol-3-yl)-1H-imidazo[4,5-c]quinolin-8-yl)propanenitrile], for which the IC50 was 100 to 1000 nM on KRAS G12V and not above 100 nM at KRAS G12D.

For the compound `CC(=O)N1CC[C@H](n2nnc3c(O[C@@H](C)[C@@H]4CCCN4C)nc4c(F)c(-c5cccc6cccc(C#N)c56)c(Cl)cc4c32)C[C@H]1CC#N` [Example 44, 8-(1-((2S,4S)-1-acetyl-2-(cyanomethyl)piperidin-4-yl)-8-chloro-6-fluoro-4-((S)-1-((S)-1-methylpyrrolidin-2-yl)ethoxy)-1H-[1,2,3]triazolo[4,5-c]quinolin-7-yl)-1-naphthonitrile], the IC50 on KRAS G12V and on KRAS G12D was not above 100 nM throughout.

In the case of `CN(C)C(=O)CCc1nc2c(N3CC(N(C)C)C3)nc3c(F)c(-c4nc(N)ccc4C(F)(F)F)c(CCC#N)cc3c2n1C1C2CNC1C2` (single isomer, unassigned) [Example 32a, 3-(7-(6-amino-3-(trifluoromethyl)pyridin-2-yl)-1-endo-(2-azabicyclo[2.1.1]hexan-5-yl)-8-(2-cyanoethyl)-4-(3-(dimethylamino)azetidin-1-yl)-6-fluoro-1H-imidazo[4,5-c]quinolin-2-yl)-N,N-dimethylpropanamide], the values for the IC50 on KRAS G12V and on KRAS G12D were 5000 to 10000 nM and 100 to 1000 nM, respectively.

For the compound `CCc1nc2c(-c3ncco3)nc3c(F)c(-c4cc(O)cc5ccccc45)c(CCC#N)cc3c2n1C1C2CNC1C2` (single isomer, unassigned) [Example 20a, 3-(1-((endo)-2-Azabicyclo[2.1.1]hexan-5-yl)-2-ethyl-6-fluoro-7-(3-hydroxynaphthalen-1-yl)-4-(oxazol-2-yl)-1H-imidazo[4,5-c]quinolin-8-yl)propanenitrile], the IC50 at KRAS G12V is 100 to 1000 nM; on KRAS G12D it was not above 100 nM.

In the case of `CCc1nc2c(-c3ccc(C(=O)NC)nc3)nc3c(F)c(-c4cc(O)cc5ccccc45)c(CCC#N)cc3c2n1C1C2CNC1C2` (single isomer, unassigned) [Example 19a, 5-(1-((endo)-2-Azabicyclo[2.1.1]hexan-5-yl)-8-(2-cyanoethyl)-2-ethyl-6-fluoro-7-(3-hydroxynaphthalen-1-yl)-1H-imidazo[4,5-c]quinolin-4-yl)-N-methylpicolinamide], the IC50 on KRAS G12V and at KRAS G12D was not above 100 nM throughout.

With `CC(=O)N1CC[C@H](n2c(=O)[nH]c3c(O[C@@H](C)[C@@H]4CCCN4C)nc4c(F)c(-c5cccc6cccc(C#N)c56)c(Cl)cc4c32)C[C@H]1CC#N` [Example 45, 8-(1-((2S,4S)-1-acetyl-2-(cyanomethyl)piperidin-4-yl)-8-chloro-6-fluoro-4-((S)-1-((S)-1-methylpyrrolidin-2-yl)ethoxy)-2-oxo-2,3-dihydro-1H-imidazo[4,5-c]quinolin-7-yl)-1-naphthonitrile], the results for the IC50 at KRAS G12V and on KRAS G12D were not above 100 nM and 100 to 1000 nM, respectively.

As to `CN(C)C1CN(c2nc3c(F)c(-c4cc(O)cc5ccccc45)c(CCC#N)cc3c3c2nc(-c2cn(C4CCNCC4)nn2)n3C2C3CNC2C3)C1` (single isomer, unassigned) [Example 26a, 3-(1-((endo)-2-Azabicyclo[2.1.1]hexan-5-yl)-4-(3-(dimethylamino)azetidin-1-yl)-6-fluoro-7-(3-hydroxynaphthalen-1-yl)-2-(1-(piperidin-4-yl)-1H-1,2,3-triazol-4-yl)-1H-imidazo[4,5-c]quinolin-8-yl)propanenitrile], the IC50 at KRAS G12V and at KRAS G12D was not above 100 nM each time.

For the compound `CC(=O)N1CCN(C(=O)CCc2nc3c(N4CC(N(C)C)C4)nc4c(F)c(-c5cc(O)cc6ccccc56)c(CCC#N)cc4c3n2C2C3CNC2C3)CC1` (single isomer, unassigned) [Example 4a, 3-(2-(3-(4-acetylpiperazin-1-yl)-3-oxopropyl)-1-((endo)-2-azabicyclo[2.1.1]hexan-5-yl)-4-(3-(dimethylamino)azetidin-1-yl)-6-fluoro-7-(3-hydroxynaphthalen-1-yl)-1H-imidazo[4,5-c]quinolin-8-yl)propanenitrile], the IC50 at KRAS G12V and at KRAS G12D was not above 100 nM each time.

Regarding `CCn1ccc(-c2nc3c(N4CC(N(C)C)C4)nc4c(F)c(-c5cc(O)cc6ccccc56)c(CCC#N)cc4c3n2C2C3CNC2C3)n1` (single isomer, unassigned) [Example 35a, 3-(1-((endo)-2-azabicyclo[2.1.1]hexan-5-yl)-4-(3-(dimethylamino)azetidin-1-yl)-2-(1-ethyl-1H-pyrazol-3-yl)-6-fluoro-7-(3-hydroxynaphthalen-1-yl)-1H-imidazo[4,5-c]quinolin-8-yl)propanenitrile], the IC50 at KRAS G12V and at KRAS G12D was not above 100 nM throughout.
